Assay [1] deals with T1, glyoxalase II of human erythrocytes (Homo sapiens, UniProt Q16775).
T1 construct: from tissue; host or cells: human erythrocyte hemolysate
Briefly: Enzymatic activity of human erythrocyte glyoxalase II (erythrocyte hemolysate). The following applies: 0-20 mM; FIG. 6. In kind it is biochemical. Here is the method: The determination of erythrocyte glyoxalase II (E.C.3.1.2.6., hydroxyacyl glutathione hydrolase) was performed according to the instructions of McLellan and Thornalley (1989). The principle is based on determining the initial hydrolysis of S-D-lactoyl-glutathione (L 7140, Sigma-Aldrich Chemie GmbH) in the presence of low amounts of a cell extract. Hydrolysis is observed on the basis of the reduction of the extinction at 240 nm (e=−3.1 mM-1 cm-1). Glyoxalase II activity (IU) correlates to the amount of enzyme hydrolysing 1 μmol of S-D-lactoyl-glutathione/min. The measurement was performed in 100 mM Tris-HCl buffer, pH 7.4. For this purpose 0.4 mM S-D-lactoyl-glutathione was added to 1 ml of the measuring reagent and the reaction was started by addition of suitable amounts (5-100 μl) of an erythrocyte hemolysate. The erythrocyte lysate was prepared according to the instructions of Mannervik et al. (1982).
Determination of glyoxalase II activity was performed according to the general protocol as described above. The influence of ethyl pyruvate on the activity of the enzyme was investigated by addition of increasing concentrations of EP (Sigma, no. E 4, 780-8; lot. S18972-513) (0-20 mM) to the measuring reagent.

In the next assay the target is T2, yeast glyoxalase I (Saccharomyces cerevisiae, UniProt P50107).
T2 construct: purchased Sigma G-4252
T2 sequence (P50107 1-326): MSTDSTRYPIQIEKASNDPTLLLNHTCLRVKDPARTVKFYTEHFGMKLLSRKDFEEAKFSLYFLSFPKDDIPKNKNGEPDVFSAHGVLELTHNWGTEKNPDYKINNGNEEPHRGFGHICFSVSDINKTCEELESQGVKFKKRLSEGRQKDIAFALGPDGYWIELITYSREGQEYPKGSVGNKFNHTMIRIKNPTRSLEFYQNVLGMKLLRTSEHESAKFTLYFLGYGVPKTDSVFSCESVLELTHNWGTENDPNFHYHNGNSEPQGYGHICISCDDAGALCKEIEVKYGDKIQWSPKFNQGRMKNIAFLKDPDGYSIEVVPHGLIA
Briefly: Enzymatic activity of yeast glyoxalase I (formation of S-D-lactoyl-glutathione, 240 nm). The settings on record: increasing concentrations (0-30 mM in Example 5); FIG. 1-3; listed as EP. In kind it is biochemical. Here is the method:
Measuring glyoxalase I (E.C.4.4.1.5, lactoyl-glutathione lyase Sigma, G-4252) was performed according to the instructions of McLellan and Thornalley (1989). The principle is based on measuring the initial rate of formation of S-D-lactoyl-glutathione from methylglyoxal (Sigma, MO252, 40%) and reduced L-glutathione (Aldrich, G-4251, >99%). The formation of the product is observed using the extinction coefficient e=2.86 mM-1 cm-1 at 240 nm. The measurement was performed in 50 mM sodium phosphate buffer, pH 7.0. For that purpose 2 mM methylglyoxal and 2 mM reduced glutathione were incubated for 2 minutes at 30° C. for the formation of the hemithioacetal. Thereafter 20 μl of a 1 to 1000 dilution of the glyoxalase I (Sigma, G-4252) was added to 1 ml of the measuring reagent to start the reaction.
(§1) Glyoxalase activity (IU) corresponds to the amount of enzyme forming 1 μmol of S-D-lactoyl-glutathione/min.
Determination of glyoxalase I activity was performed according to the general protocol as described above. The influence of ethyl pyruvate on enzyme activity was investigated by addition of increasing concentrations of EP (Sigma; no. E4, 780-8; lot. S18972-513) to the measuring reagent.
Determination of glyoxalase I activity was performed according to the general protocol as described above. The influence of compounds of the general formula (I), (II), and (III) on the activity of the enzyme was investigated by addition of increasing concentrations of these compounds to the preparation. The IC50-values were calculated from inhibition curves of each compound.
Determination of glyoxalase I activity was performed according to the general protocol as described above. The influence of 2-oxopropanethioic acid S-ethyl ester on the activity of the enzyme was investigated by addition of increasing concentrations of SE to the preparation for the measurement.
Determination of glyoxalase I activity was performed according to the general protocol as described above. The influence of effectors on the enzymatic activity was investigated by addition of increasing concentrations (0-30 mM) of EP (Sigma; no. E4, 780-8; lot. S18972-513) (triangle), BP (prepared according to the instructions of patent JP 11080089; 98%) (circle) and BL (Fluka, 69819; lot. 443090/1 21503090) (squares) to the measuring reagent (FIG. 3).

In assay [2] the target is T3, glyoxalase I of human erythrocytes (Homo sapiens, UniProt Q04760).
T3 construct: from tissue; host or cells: human erythrocyte lysate
T3 sequence (Q04760 2-184 limits assumed): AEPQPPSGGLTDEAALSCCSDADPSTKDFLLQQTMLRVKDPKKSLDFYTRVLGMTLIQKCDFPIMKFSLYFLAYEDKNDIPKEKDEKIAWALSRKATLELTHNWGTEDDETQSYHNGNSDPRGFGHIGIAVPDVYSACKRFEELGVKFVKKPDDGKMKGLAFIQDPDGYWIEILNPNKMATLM
Briefly: Enzymatic activity of human erythrocyte glyoxalase I (erythrocyte lysate). The following applies: 0-50 mM; FIG. 5. In kind it is biochemical. Here is the method:
The determination of glyoxalase I was performed as described above for the yeast enzyme. After the formation of the hemithioacetal, suitable amounts (5 to 100 μl) of an erythrocyte lysate were added to 1 ml of the measuring reagent to start the reaction. The erythrocyte lysate was prepared according to the instructions of Mannervik et al. (1982).
as §1
Determination of glyoxalase I activity was performed according to the general protocol as described above. The influence of ethyl pyruvate on enzyme activity was investigated by addition of increasing concentrations of EP (Sigma; no. E4, 780-8; lot. S18972-513) (0-50 mM) to the measuring reagent.

A further assay has as its system yeast glyoxalase II. Briefly: Enzymatic activity of yeast glyoxalase II (cell free extract, DTNB, 412 nm). In kind it is biochemical, Saccharomyces cerevisiae. The settings on record: 0-20 mM; FIG. 4. Here is the method:
Protein concentration of the cell free extract was determined according to the Bradford method (Bradford, 1976).
The activity of the glyoxalase II (Hydroxyacyl glutathione hydrolase, E.C. 3.1.2.6.) was determined according to the instructions of Martins et al. (1999) in 0.1 M MES buffer, pH 6.5, 1.5 mM S-D-lactoyl-glutathione (L7140, Sigma-Aldrich Chemistry GmbH) and 0.75 mM DTNB (Sigma, D8130). After addition of suitable amounts of cell extract and an incubation period of 15 min at 25° C. the formation of glutathione was measured at 412 nm (ε=13.6 mM^−1 cm^−1). The activity of the glyoxalase II (IU) correlates with the amount of enzyme hydrolysing 1 μmol of S-D-lactoyl-glutathion/min.
The influence of ethyl pyruvate on the activity of the enzyme was investigated by adding increasing concentrations of EP (Sigma, No. E4, 780-8; Lot. S18972-513) (0-20 mM) to the measurement reagent.

The values that follow come from patent US20100204161A1, “Substances and Pharmaceutical Compositions for the Inhibition of Glyoxalases and Their Use Against Bacteria” (BIOMAC PRIVATINSTITUT FUR MEDIZINISHE UND ZAHMEDIZ …, priority 2005, published 2010).

Structures are written as SMILES. “Also recorded” adds a separate entry of the source.

With `CCOC(=O)C(C)=O` [Ethyl pyruvate], the “Inhibition of the enzymatic activity of glyoxalase II of human erythrocytes” value in assay [1] is listed as “inhibits the reaction of glyoxalase II in a concentration dependent manner”. On yeast glyoxalase I, the “Influence on the enzymatic activity of yeast glyoxalase I” value is recorded as “inhibits the reaction of yeast glyoxalase I in a concentration dependent manner; also recorded: inhibit the activity of glyoxalase I in a concentration dependent manner”. The “Inhibition of the enzymatic activity of glyoxalase I of human erythrocytes” value in assay [2] was “inhibits the reaction of glyoxalase I of human erythrocytes in a concentration dependent manner”. The “Influence on the enzymatic activity of yeast glyoxalase II” value with yeast glyoxalase II was “inhibits the reaction of yeast glyoxalase II in a concentration dependent manner”.
